We go through one compound from US20090253634A1, “Methods and Compositions for the Treatment of Gastrointestinal Disorders” (MICROBIA, INC., priority 2005, published 2009).

Bridge positions count the residues as written; N and C are the ends. Peptide text beside a SMILES is read from it.

The test system of assay [1] is ligated loop in the small intestine. Put plainly: ligated intestinal loop model in wild-type and GC-C KO mice. Format: in vivo. Particulars: 5 μg injected into loop, 90 minutes. How it is done:
The length of each loop was also recorded.

For a further assay, the target named is T1, guanylate cyclase C (Mus musculus, UniProt Q3UWA6).
T1 construct: isolated intestinal epithelial cells from two female wild-type and two female GC-C KO mice; from tissue; host or cells: mouse intestinal epithelial cells (homogenised), wild-type; GC-C KO mice as control
T1 sequence (Q3UWA6 20-1072): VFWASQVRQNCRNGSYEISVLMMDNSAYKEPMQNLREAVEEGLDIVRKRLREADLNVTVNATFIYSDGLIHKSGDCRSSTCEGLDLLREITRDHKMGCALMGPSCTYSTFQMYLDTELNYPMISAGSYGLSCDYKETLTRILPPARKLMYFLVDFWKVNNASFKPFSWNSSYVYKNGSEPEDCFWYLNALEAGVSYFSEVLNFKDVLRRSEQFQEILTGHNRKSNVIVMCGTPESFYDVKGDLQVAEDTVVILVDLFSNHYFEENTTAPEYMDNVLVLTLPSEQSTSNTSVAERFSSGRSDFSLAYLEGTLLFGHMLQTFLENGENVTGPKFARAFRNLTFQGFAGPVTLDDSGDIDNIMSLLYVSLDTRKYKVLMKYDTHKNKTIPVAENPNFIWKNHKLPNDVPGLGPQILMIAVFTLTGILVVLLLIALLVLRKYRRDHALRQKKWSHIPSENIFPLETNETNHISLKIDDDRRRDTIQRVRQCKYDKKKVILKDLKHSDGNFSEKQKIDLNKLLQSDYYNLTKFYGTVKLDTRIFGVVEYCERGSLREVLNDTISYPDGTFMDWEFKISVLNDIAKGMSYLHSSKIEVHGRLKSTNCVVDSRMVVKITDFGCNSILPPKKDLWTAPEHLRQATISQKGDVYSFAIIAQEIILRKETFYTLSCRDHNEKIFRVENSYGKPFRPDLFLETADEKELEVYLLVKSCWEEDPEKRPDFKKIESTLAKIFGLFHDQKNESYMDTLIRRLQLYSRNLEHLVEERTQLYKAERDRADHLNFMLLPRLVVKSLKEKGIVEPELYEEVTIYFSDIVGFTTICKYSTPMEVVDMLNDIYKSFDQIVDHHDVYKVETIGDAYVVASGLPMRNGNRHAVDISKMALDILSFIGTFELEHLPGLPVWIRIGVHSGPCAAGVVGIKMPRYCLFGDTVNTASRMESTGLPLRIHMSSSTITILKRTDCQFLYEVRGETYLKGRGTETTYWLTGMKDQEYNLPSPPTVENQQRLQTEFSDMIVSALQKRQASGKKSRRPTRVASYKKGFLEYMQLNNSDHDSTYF
Put plainly: competition binding assay on intestinal epithelial cells of wild-type and GC-C KO mice. Particulars: GC-C KO mice compared to wild-type mice; 125I-SEQ ID NO:3.

The subject of the next assay is PBQ-induced writhing. Put plainly: phenylbenzoquinone (PBQ)-induced writhing model. (Writhing tests count abdominal constrictions after an irritant is injected.)
The next assay concerns gastrointestinal transit. Put plainly: murine gastrointestinal transit (GIT) assay, acute and chronic dosing. The class given is in vivo, mice. How it is done:
In order to determine whether the peptides increase the rate of gastrointestinal transit, the peptides and controls were tested using a murine gastrointestinal transit (GIT) assay (Moon et al. Infection and Immunity 25:127, 1979). In this assay, charcoal, which can be readily visualized in the gastrointestinal tract is administered to mice after the administration of a test compound. The distance traveled by the charcoal is measured and expressed as a percentage of the total length of the […].
Mice were fasted with free access to water for 12 to 16 hours before the treatment with peptide or control buffer. The peptides were orally administered at 1 μg/kg-1 mg/kg of peptide in buffer ([…] pH 7.5) 7 minutes before being given an oral dose of 5% Activated Carbon (Aldrich 242276-250G). Control mice were administered buffer only before being given a dose of Activated Carbon. After 15 minutes, the mice were sacrificed and their intestines from the stomach to the cecum were dissected. The total length of the intestine as well as the distance traveled from the stomach to the charcoal front was measured for each animal and the results are expressed as the percent of the total length of the intestine traveled by the charcoal front. All results are reported as the average of 10 mice±standard deviation. A comparison of the distance traveled by the charcoal between the mice treated with peptide versus the mice treated with vehicle alone was performed using a Student's t test and a statistically significant difference was considered for P<0.05. P-values are calculated using a two-sided T-Test assuming unequal variances.
The identical experiment was performed to determine if SEQ ID NO:3 is effective in a chronic dosing treatment regimen. Briefly, 8 week old CD1 female mice are dosed orally once a day for 5 days with either SEQ ID NO:3 (0.06 mg/kg or 0.25 mg/kg in 20 mM Tris pH 7.5) or vehicle alone (20 mM Tris pH 7.5). On the 5th day, a GIT assay is performed identical to that above except 200 μl of a 10% charcoal solution is administered. […] The results are shown side by side with acute dosing (1 day).

Description for guanylate cyclase C: Mouse intestinal epithelial cells were prepared identical to that above as for rat intestinal epithelial cells except the cells were homogenized with an Omni homogenizer for 20 seconds on the maximum setting to make a suspension of cells. A competition binding assay was performed identical to that described above between ^125I labeled SEQ ID NO:3 and unlabeled SEQ ID NO:3 (competitor).

Regarding `C[C@@H]1NC(=O)[C@@H]2CCCN2C(=O)[C@H](CC(N)=O)NC(=O)[C@@H]2CSSC[C@H](N)C(=O)N[C@H]3CSSC[C@H](NC1=O)C(=O)N[C@@H]([C@@H](C)O)C(=O)NCC(=O)N[C@H](C(=O)N[C@@H](Cc1ccc(O)cc1)C(=O)O)CSSC[C@H](NC(=O)[C@H](Cc1ccc(O)cc1)NC(=O)[C@H](CCC(=O)O)NC3=O)C(=O)N2` [SEQ ID NO:3] (H-CCEYCCNPACTGCY-OH; disulfide 1-6, 2-10, 5-13; N-terminus and C-terminus assumed), in assay [1], the “cGMP activity in ligated loop fluid” value is “no effect” and the “secretion in ligated loop (weight to length ratio)” value is on record as “no effect”. Moreover, at guanylate cyclase C, the “binding to intestinal epithelial cells” value was “reduction in SEQ ID NO:3 binding”. Further, the “writhings versus vehicle control” value in the assay on PBQ-induced writhing (2.5 mg/kg dose, oral) is “Significant reductions in writhings”. Moreover, the “antinociceptive effect compared with indomethacin” value with PBQ-induced writhing (PBQ writhing assay) was “antinociceptive effects in this visceral pain model comparable to the intermediate doses of indomethacin”. Also, the “intestinal transit rates versus Tris buffer or equivalent dose of Zelnorm” value in the assay with gastrointestinal transit (acute, chemically synthesized peptides, FIG. 4b) is on record as “increase intestinal transit rates more than either Tris buffer alone or an equivalent dose of Zelnorm®”. For the same compound, the gastrointestinal transit rate entry in the assay on gastrointestinal transit (acute, oral, SEQ ID NO:4 and Zelnorm 0.1 mg/kg, FIG. 3a, 3b) is “increase gastrointestinal transit rate”. The “effect in mouse gastrointestinal motility assay upon chronic dosing” value in the assay on gastrointestinal transit (oral once a day for 5 days, SEQ ID NO:3 0.06 or 0.25 mg/kg, FIG. 4c) was “effective”.
